Test in all cases: DTP human tumour cell line panel, 48 h
Assay [1] concerns OVCAR-4 ovarian.
The test system of assay [2] is MCF7 breast.
In assay [3] the test system is COLO 205 colon.
For assay [4], the system named is HL-60(TB) leukemia.
Assay [5] deals with EKVX NSCLC.
In assay [6] the test system is KM12 colon.
For assay [7], the system named is NCI-H226 lung.
Assay [8] relates to OVCAR-5 ovarian.
For assay [9], the system named is TK-10 renal.
The subject of assay [10] is HOP-92 NSCLC.

“And” between values parts separate entries of the source, which are not always exact repeats. Identical values can stand only once.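 Cultured in 96-well plates, cells were exposed to test compound for 48 hours across five concentrations. Abbreviation: GI50, concentration required for 50% inhibition of growth. TGI is the concentration that stops growth completely.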 A value given as a limit tells only on which side of the number the result lay.

Consider `COc1cc(NC(=O)c2cc(O)c(CC=C(C)C)c(O)c2)cc2c1O[C@]1(C)CC[C@@H](O)C(C)(C)[C@H]1C2`, for which the GI50 in [1] was 7.52 µM; in [2], 2.1 µM; in assay [3], 2.24 µM; in assay [4] it was 1.88 µM; in [5] it was 5.96 µM; in [6] it was 4.12 µM. The GI50 is 11.2 µM in [7], 12 µM in assay [8] and 9.59 µM in assay [9]. Moreover, the total growth inhibition concentration (TGI) was above 100 µM in assay [1]; 15.4 µM in assay [2]; 5.5 µM in assay [3]; 18.7 µM in assay [4]; 48.2 µM in assay [5]; 18.4 µM in assay [6]. Moreover, the TGI in assay [7] turned out to be 31.7 µM; in [8], 66.7 µM; in assay [9], 55.6 µM.

For `CCOC(=O)Sc1ncnc2nc[nH]c12`, the GI50 was 0.491 µM in assay [1]; 0.616 µM in assay [2]; 3.92 µM in [3]; 1.42 µM in assay [4]; 38.5 µM in assay [5]; 4.03 µM in assay [6]. In addition, the values for the GI50 in assay [7], in assay [8] and in assay [9] were 4.46 µM, 4.49 µM and 0.547 µM, respectively. Also, the concentration for total growth inhibition (TGI) in assay [1] was above 100 µM; in assay [2], above 100 µM; in assay [3] it was 46.4 µM; in assay [4], 6.7 µM; in assay [5], above 100 µM; in [6] it was above 100 µM. Further, the total growth inhibition concentration (TGI) in assay [7], in assay [8] and in assay [9] was above 100 µM in each case.

`CC/C=C\C[C@@H]1C/C=C2/C(=O)C=C[C@H]2C/C=C\CCCC(=O)O1`: the GI50 in assay [1] was 1.04 µM; in assay [2], 0.356 µM; in [3], 0.284 µM; in assay [4] it was 0.277 µM; in [5] it was 1.1 µM; in assay [10], 2.25 µM. Besides, the GI50 was 0.262 µM in assay [6], 1.51 µM in assay [8] and 1.48 µM in assay [9]. For the same compound, the TGI in assay [1] is 2.38 µM; in assay [2] it was 2.12 µM; in [3], 1.05 µM; in assay [4], 0.716 µM; in assay [5], 2.44 µM; in assay [10], 4.97 µM. Further, the TGI in assay [6] is 0.767 µM; in [8] it was 3.78 µM; in [9] it was 3.14 µM.

`CN(C)c1ccc(N)cc1`: the GI50 in assay [1] is 1.74 µM; in [2] it was 2.83 µM; in assay [3], 1.97 µM; in [5] it was 3.32 µM; in [10], 2.3 µM; in [6], 3.25 µM. Besides, the GI50 in [7] was 12.4 µM; in [8], 13.5 µM; in assay [9], 3.05 µM. Also, the TGI turned out to be 3.45 µM in assay [1]; 9.12 µM in assay [2]; 4.54 µM in [3]; 26.4 µM in assay [5]; 7.91 µM in assay [10]; 12.2 µM in [6]. Also, the total growth inhibition concentration (TGI) in [7] is 48 µM; in [8], 42.6 µM; in assay [9], 18.5 µM.

As for `CC(=O)OC[C@]12CC[C@H]3[C@@H](C[C@H]4O[C@]45[C@@H](O)C=CC(=O)[C@]35C)[C@@H]1CC[C@@H]2[C@H](C)[C@H]1CC(C)=C(C)C(=O)O1`, the concentration for 50% growth inhibition (GI50) in [1] is 0.571 µM and 0.331 µM; in assay [3] it was 0.348 µM and 0.31 µM; in [4] it was 0.243 µM and 0.119 µM; in assay [5], 0.601 µM and 0.753 µM; in [10], 0.22 µM and 0.189 µM; in assay [6] it was 0.467 µM and 0.349 µM. In addition, the GI50 in assay [7] was 0.983 µM and 0.583 µM; in assay [8], 0.883 µM and 1.21 µM; in assay [9] it was 0.548 µM and 0.68 µM. In addition, the concentration for total growth inhibition (TGI) was 0.9 µM and 1.06 µM in [1]; 0.91 µM in [3]; 0.642 µM and 0.37 µM in [4]; 1.94 µM in [5]; 0.722 µM and 1.27 µM in [10]; 1.11 µM in assay [6]. The total growth inhibition concentration (TGI) in [7] was 1.9 µM; in [8], 2.5 µM; in assay [9], 1.82 µM.

`CN(C)CCNC(=O)c1cccc(C(=O)Nc2ccccc2)c1[N+](=O)[O-]`: the concentration for total growth inhibition (TGI) in assay [2], in assay [3], in assay [4], in assay [6], in assay [7] and in assay [8] was above 100 µM in each case. Further, the total growth inhibition concentration (TGI) in [9] is above 100 µM.

`COC(=O)c1cc(Br)c(Br)n1C`: the TGI in assay [1], in [3], in [4], in assay [5], in [10] and in assay [6] was above 100 µM in each case. For the same compound, the TGI in assay [7], in assay [8] and in assay [9] was above 100 µM each time.

For the compound `CCS(=O)(=O)c1ccc(OC)c(Nc2ncc(-c3cccc(C(C)=O)c3)o2)c1`, the GI50 is above 25 µM in [1]; above 25 µM in assay [2]; above 25 µM in assay [3]; above 25 µM in assay [4]; above 25 µM in [5]; 2.1 µM in [6]. Also, the GI50 is 2.69 µM in assay [7], above 25 µM in [8] and above 25 µM in assay [9]. Moreover, the TGI in [1], in assay [2], in [3], in assay [4], in [5] and in assay [6] was above 25 µM each time. The TGI in [7], in assay [8] and in assay [9] was above 25 µM in each case.

In the case of `O=C1NC(=O)c2ccc([N+](=O)[O-])c3cccc1c23`, the concentration for total growth inhibition (TGI) in assay [1] was 35.5 µM; in [2], 27.9 µM; in assay [3], 30.9 µM; in assay [5], 62.4 µM; in assay [10] it was 37.2 µM; in assay [7], 43.6 µM. The concentration for total growth inhibition (TGI) came out at 32.3 µM in assay [8] and 45.8 µM in assay [9].

`Cc1cc(C)nc(NS(=O)(=O)c2ccc(Nc3c4ccccc4nc4c(C(=O)Nc5ccc(S(=O)(=O)Nc6cc(C)on6)cc5)cccc34)cc2)n1`: the TGI in assay [1] is 65.5 µM; in assay [3], 34.1 µM; in assay [4] it was 61.4 µM; in assay [5] it was 66.7 µM; in assay [10], 39.5 µM; in [6] it was 35.7 µM. Further, the TGI in assay [7] was 46.5 µM; in assay [8] it was 59 µM; in [9] it was 96 µM.

Values taken from PubChem BioAssay (NCI).
